Measurements: patent US6048890A, “Phenylamidinothiophene derivatives and anti-inflammatory agent containing the same” (Kaken Pharmaceutical Co., Ltd., priority 1995, dated 2000)
Values joined by “and” are separate entries in the source; they are usually repeats but may differ in a detail not shown here. Identical values can stand only once. Like-named read-outs stand apart in the source and are kept apart here.

Assays:
[1] = molecular target: T1, cyclooxygenase of sheep seminal vesicle gland (Ovis aries, UniProt P05979); experiment: Action on activity of cyclooxygenase of sheep seminal vesicle gland; format: biochemical
T1 construct: purchased CAYMAN CO., LTD; host or cells: sheep seminal vesicle gland
T1 sequence (P05979 25-600): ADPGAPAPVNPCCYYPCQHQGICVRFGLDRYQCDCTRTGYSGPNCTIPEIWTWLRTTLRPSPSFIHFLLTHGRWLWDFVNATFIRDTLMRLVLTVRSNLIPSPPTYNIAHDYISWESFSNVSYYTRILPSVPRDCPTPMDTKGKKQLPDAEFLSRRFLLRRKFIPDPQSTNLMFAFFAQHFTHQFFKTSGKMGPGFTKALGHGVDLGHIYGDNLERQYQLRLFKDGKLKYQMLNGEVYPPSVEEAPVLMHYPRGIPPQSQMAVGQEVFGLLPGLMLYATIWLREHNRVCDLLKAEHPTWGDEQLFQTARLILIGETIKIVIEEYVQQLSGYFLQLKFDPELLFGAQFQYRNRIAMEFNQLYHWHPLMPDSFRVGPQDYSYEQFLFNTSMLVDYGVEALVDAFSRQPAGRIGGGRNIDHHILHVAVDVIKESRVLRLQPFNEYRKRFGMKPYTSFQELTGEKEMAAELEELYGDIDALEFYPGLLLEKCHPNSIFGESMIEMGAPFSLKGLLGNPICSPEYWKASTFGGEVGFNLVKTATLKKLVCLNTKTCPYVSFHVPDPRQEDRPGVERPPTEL
Procedure: Two hundred and fifty μl of an enzyme solution containing each test compound [5 mM triptophan, 200 nM hematin, 0.04% by weight Tween 20, 10 units of cyclooxygenase of sheep seminal vesicle gland (made by CAYMAN CO., LTD.), 2 μM [1-^14 C] arachidonic acid, 0.1 M Tris-hydrochloric acid buffer solution (pH: 8.0)], underwent a reaction at 25° C. for 6 minutes. The reaction was terminated by addition of 0.5 ml of a 0.2 M citric acid buffer solution (pH 3.0). [1-^14 C]arachidonic acid was extracted with ethyl acetate and separated by a thin layer chromatography. The radioactivity of the resulting arachidonic acid fraction was determined with a scintillation counter and the inhibition was calculated.
The inhibition value was calculated according to the following formula: [formula]

rat adjuvant arthritis = experiment: Action on rat adjuvant arthritis (paw swelling inhibition); format: in vivo, male Lewis rats; settings: mean of 4 rats (standard error); for Swelling inhibition (%), Primary inflammation (inoculated paw): measured 3 days after adjuvant inoculation; for Swelling inhibition (%), Secondary inflammation (uninoculated paw): measured 17 days after adjuvant inoculation
Procedure: Seven-week old male Lewis rats (4 rats in one group) were injected under the plantar skin of the right hind paw with 0.6 mg/0.1 ml of a suspension of human tubercle bacillus, killed Mycobacterium tuberculosis H37 RA in liquid paraffin, thereby inducing adjuvant arthritis. The volume of the adjuvant-inoculated paw (primary inflammation) was measured 3 days after the inoculation of adjuvant and the volume of the adjuvant-uninoculated paw (secondary inflammation) 17 days after the inoculation of adjuvant. The swelling rate of each paw was calculated with respect to the volume of the paw before the inoculation of adjuvant. Ten mg of the instant compound was suspended in 10 ml of a 0.5% by weight aqueous solution of carboxymethyl cellulose and the oral administration of the obtained suspension began on day of adjuvant inoculating and continued for 17 days in a dose of 10 mg/kg one time per day.
The swelling rate and inhibition rate were calculated according to the following formulae: [formula]
Each value is an average value for 4 rats in one group and the value in parentheses is standard error.

stress ulcer in mice = format: in vivo; settings: for Ulcer index: 15 minutes before 7 h constraint under water immersion, average of sum of ulcer lengths
Procedure: Six-week old male ddy […] (10 rats in one group) were completely fasted overnight and then loaded with constraint under water immersion for 7 hours. The rats were observed under a stereoscopic microscope to examine production of gastric ulcer. Sum (mm) of lengths of ulcers for each animal was taken as ulcer index. Ten mg, 30 mg or 100 mg of the instant compound was mixed with 0.15 ml of Tween 80 and suspended into a 0.5% by weight aqueous solution of gum arabic to give a total 10 ml of a suspension. The suspension was orally administered 15 minutes before loading of the constraint under water immersion. Indomethacin was used as a comparative drug.
The test results are shown in Table 3 in terms of an average value of ulcer indexes.

[2] = comparative drug, 1 mg/kg, 1 mg/kg
[3] = comparative drug, 1 mg/kg, listed as indomethacin, 1 mg/kg
[4] = 10 mg/kg oral once daily for 17 days

Structure (SMILES)	Swelling inhibition (%), Primary inflammation (inoculated paw) (rat adjuvant arthritis; [4])	Swelling inhibition (%), Secondary inflammation (uninoculated paw) (rat adjuvant arthritis; [4])	also measured
COc1ccc2c(c1)c(CC(=O)O)c(C)n2C(=O)c1ccc(Cl)cc1 [Indomethacin, indomethacin, reference compound]	–	–	Inhibition of cyclooxygenase activity (in words) ([1]; 10^-6 M): completely inhibited the activity; inhibition at 0.1 µM ([1]; 10^-7 M, pH 8.0, 25° C., 6 minutes, average of two experiments): 66.2%; Concentrations at which the activity of cyclooxygenase was inhibited ([1]; dependent on dosage): ≥ 10^-8 M; Swelling inhibition (%), Primary inflammation (inoculated paw) (rat adjuvant arthritis; [2]): 28.3 (4.10) %; Swelling inhibition (%), Primary inflammation (inoculated paw) (rat adjuvant arthritis; [3]): 28.8%; Swelling inhibition (%), Secondary inflammation (uninoculated paw) (rat adjuvant arthritis; [2]): 43.6 (9.42) %; Swelling inhibition (%), Secondary inflammation (uninoculated paw) (rat adjuvant arthritis; [3]): 43.6%
CS(=O)(=O)c1ccc(-c2cc(C(=N)Nc3ccc(Cl)c(Cl)c3)sc2-c2ccc(F)cc2)cc1 [Example 17]	27.4 (7.02) %	44.1 (3.83) %	–
CS(=O)(=O)c1ccc(-c2cc(C(=N)Nc3ccccc3Cl)sc2-c2ccc(F)cc2)cc1 [Example 3]	22.1 (4.94) %	32.2 (10.8) %	–
CS(=O)(=O)c1ccc(-c2cc(C(=N)Nc3ccc(F)cc3F)sc2-c2ccc(F)cc2)cc1 [Example 12]	18.2 (2.73) %	24.9 (10.2) %	–
CS(=O)(=O)c1ccc(-c2cc(C(=N)Nc3ccc(F)cc3)sc2-c2ccc(F)cc2)cc1 [Example 6]	26.3 (4.37) %	57.2 (5.34) %	–
CS(=O)(=O)c1ccc(-c2cc(C(=N)Nc3ccc(Cl)cc3Cl)sc2-c2ccc(F)cc2)cc1 [Example 13]	16.7 (3.25) %	24.2 (5.05) %	–
CS(=O)(=O)c1ccc(-c2cc(C(=N)Nc3ccc(F)c(Cl)c3)sc2-c2ccc(F)cc2)cc1 [Example 18]	27.9 (3.09) %	48.9 (9.69) %	–
CS(=O)(=O)c1ccc(-c2cc(C(=N)Nc3cccc(F)c3)sc2-c2ccc(F)cc2)cc1 [Example 5]	23.5 (4.75) %	34.7 (4.26) %	–
CS(=O)(=O)c1ccc(-c2cc(C(=N)Nc3ccc(Br)cc3)sc2-c2ccc(F)cc2)cc1 [Example 7]	36.1 (6.36) %	48.8 (3.20) %	–
COc1ccc(NC(=N)c2cc(-c3ccc(S(C)(=O)=O)cc3)c(-c3ccc(F)cc3)s2)cc1 [Example 11]	35.0 (10.1) %	37.1 (4.42) %	–
CS(=O)(=O)c1ccc(-c2cc(C(=N)Nc3cccc(Cl)c3)sc2-c2ccc(F)cc2)cc1 [Example 1, 5-[N^1-(3-chlorophenyl)amidino]-2-(4-fluorophenyl)-3-(4-methylsulfonylphenyl)thiophene]	31.5% and 31.5 (0.91) %	48.9% and 48.9 (3.58) %	inhibition at 100 µM ([1]; 10^-4 M, pH 8.0, 25° C., 6 minutes, average of two experiments): -2.2%; inhibition at 10 µM ([1]; 10^-5 M, pH 8.0, 25° C., 6 minutes, average of two experiments): 1.3%; inhibition at 1 µM ([1]; 10^-6 M, pH 8.0, 25° C., 6 minutes, average of two experiments): 3.4%; Inhibition of cyclooxygenase activity (in words) ([1]; even in 10^-4 M added group): did not inhibit the activity of cyclooxygenase; Ulcer index (stress ulcer in mice; 10 mg/kg oral): 6.5 mm; Ulcer index (stress ulcer in mice; 30 mg/kg oral): 10.8 mm; Ulcer index (stress ulcer in mice; 100 mg/kg oral): 9.6 mm; Ulcer index / ulcer-exacerbating action (in words) (stress ulcer in mice; compared with solvent-given group, up to 100 mg/kg (Example 1), 1 and 3 mg/kg (indomethacin)): no evident difference in ulcer index was observed even in the group given 100 mg/kg
CS(=O)(=O)c1ccc(-c2cc(C(=N)Nc3ccccc3)sc2-c2ccc(F)cc2)cc1 [Example 2]	22.6 (5.24) %	28.4 (2.55) %	–
CS(=O)(=O)c1ccc(-c2cc(C(=N)Nc3ccc(Cl)cc3)sc2-c2ccc(F)cc2)cc1 [Example 4]	32.7 (7.40) %	57.4 (8.54) %	–
